Laboratory results taken from patent US10981932B2, “Macrocyclic indole derivatives” (Bayer Aktiengesellschaft, priority 2016, dated 2021).
Structures can show the parent of a compound that is named as a salt. Where two headings read alike, the source gives them in different places.

Key:
[1] = tested on: SUDHL5; experiment: Induction of caspase-3/7 activity (Caspase-Glo 3/7), SUDHL5; format: cell-based; settings: caspase-3/7 induction, SUDHL5 cells, 3 h treatment, median
Experimental: (§1) Induction of Caspase-317 Activity Upon Treatment of Cells with Selected Compounds
(§2) The BH3-domain of MCL-1 sequesters pro-apoptotic proteins, thereby inhibiting apoptosis. In contrast, MCL-1 inhibitors are expected to antagonize this effect leading to an increase in apoptosis, which can be determined by measuring the activity of caspase-3/7.
(§3) The activity of caspase-3/7 was determined in DLBCL (Diffuse large B-cell lymphoma) cell lines (SUDHL5 and SUDHL10) upon treatment with different compounds, using the Caspase-Glo® 3/7 reagent from Promega (G8092).
(§4) Rim wells were excluded. The cells were incubated for 3 h hours in a humidified incubator at 37° C.
(§5) For the evaluation of the results, the background measured with “medium-only” was subtracted from all other values. […] The Bella DRC Master Sheet was used to calculate EC50s, with fixed C0=1 and CI=plateaulmax induction for the reference compound.

[2] = tested on: SUDHL5; experiment: Induction of cytotoxicity (CellTiter-Glo, 5 h), SUDHL5
[3] = tested on: SUDHL10; experiment: Induction of caspase-3/7 activity (Caspase-Glo 3/7), SUDHL10; format: cell-based; settings: caspase-3/7 induction, SUDHL10 cells, 3 h treatment, median
Experimental: as §1, §2, §3, §4, §5

[4] = tested on: SUDHL10; experiment: Induction of cytotoxicity (CellTiter-Glo, 5 h), SUDHL10
[5] = tested on: A2780; experiment: Anti-proliferative effect (CellTiter-Glo, 72 h), A2780; format: cell-based; settings: A2780 cells, median, read-out: IC50 antiproliferation assay A2780 [M] (median)
Experimental: (§6) Assessment of the Anti-Proliferative Effect of Compounds in Different Cell Lines
(§7) The impact of compounds on the proliferation of different cell lines was assessed using the CellTiter-Glo® Luminescent Cell Viability reagent from Promega (G7573). Of note, SUDHL10 and SUDHL5 (DLBCL), NCI-H929 (Multiple Myeloma), A2780 (ovarian carcinoma) as well as MV-4-11(AML) cells are sensitive to MCL-1 inhibition.
(§8) In parallel, cells were plated in a reference (day 0) plate for time zero determination.
(§9) Rim wells were excluded. The cells were incubated for 72 h hours in a humidified incubator at 37° C. The day 0 plate was measured by adding 30 μl/well of CTG solution (CellTiter-Glo® Luminescent Cell Viability reagent, Promega G7573) to time zero wells in the reference plate followed by a 10 minutes incubation and luminescence reading at 0.1 ms, using the PHERAstar FS microplate reader (BMG Labtech).
(§10) After 72 h incubation, the treated plates were measured in the same way as the day 0 plate mentioned above.

[6] = biological target: MCL-1 (Homo sapiens, UniProt Q07820); experiment: Protein-protein interaction assay MCL-1/Noxa BH3 peptide (MCL-1 assay), TR-FRET; format: binding; settings: MBP-MCL-1 / Noxa BH3-derived peptide, median
Experimental: Protein-Protein Interaction Assay: MCL-1/Noxa BH3 Peptide (MCL-1 Assay) […]
In the assay 11 different concentrations of each compound (0.1 nM, 0.33 nM, 1.1 nM, 3.8 nM, 13 nM, 44 nM, 0.15 μM, 0.51 μM, 1.7 μM, 5.9 μM and 20 μM) were typically measured as duplicates in the same microtiter plate. For that, 100-fold concentrated DMSO solutions were prepared by serial dilutions (1:3.4) of a 2 mM stock solution in a clear, 384-well microtiter plate (Greiner Bio-One, Frickenhausen, Germany). From there, 50 ni were transferred in a dark test plate (Greiner Bio-One, Frickenhausen, Germany). The assay was initiated by addition of 2 μl of a 2.5-fold concentrated MBP-MCL-1 solution (usually for a 1 nM end concentration in 5 μl reaction volume) in aqueous assay buffer [50 mM Tris/HCl pH 7, 100 mM sodium chloride (NaCl), 50 mM potassium fluoride (KF), 0.005% Tween-20, 2 mM DTT, 0.1% bovine gamma globulin (BGG)] to the compounds in the assay plate. This was followed by a 10-minute incubation step at 22° C. for pre-equilibration of the putative complex between MBP-MCL-1 and the compounds. After that.
The mixture was incubated in the dark for one hour at 22° C. and then overnight at 4° C. The formation of MCL-1/Noxa complexes was determined by measuring the resonance energy transfer of the anti-MBP- Eu-cryptate antibody to the streptavidin-XL665 present in the reaction. For that purpose, the fluorescence emission at 620 nm and 665 nm after excitation at 330-350 nm was measured in a TR-FRET measuring instrument, for instance a Rubystar or a Pherastar (both from BMG Lab Technologies, Offenburg, Germany) or a Viewlux (Perkin-Elmer). The ratio of the emission at 665 nm and at 622 nm was used as indicator of the amount of MCL-1/NOXA complexes present.
The resulting data (ratio) were normalized, taking 0% inhibition as the mean value of control measurements (usually 32 data points) where all reagents were included. In this case 50 nl DMSO were used instead of compounds. A 100% inhibition corresponded to the mean value of control measurements (usually 32 data points) where all reagents except MCL-1 were included. IC50 values were determined by regression analysis based on a 4 parameter equation (minimum, maximum, IC50, Hill; Y=Max+(Min−Max)/(1+(X/IC50)^Hill) using the Screener Software (Genedata).

[7] = tested on: SUDHL5; experiment: Anti-proliferative effect (CellTiter-Glo, 72 h), SUDHL5; format: cell-based; settings: SUDHL5 cells, antiproliferation, median, read-out: Antiproli SUDHL5 [M] (median)
Experimental: as §6, §7, §8, §9, §10

[8] = Homo sapiens, SU-DHL-5, 5 h, read-out: Cytotox SUDHL5 [M] (median), SUDHL5 cells, cytotoxicity induction, CellTiter-Glo, 5 h incubation, median
[9] = Homo sapiens, SU-DHL10, 5 h, read-out: Cytotox SUDHL10 [M] (median), SUDHL10 cells, cytotoxicity induction, CellTiter-Glo, 5 h incubation, median
[10] = Homo sapiens, SU-DHL-5, 72 h, 72 h incubation
[11] = Homo sapiens, SU-DHL-5, 5 h, read-out: Cytotox SUDHL5 [M] (median), SUDHL5 cells, cytotoxicity induction, CellTiter-Glo, 5 h, median
[12] = Homo sapiens, SU-DHL10, 5 h, read-out: Cytotox SUDHL10 [M] (median), SUDHL10 cells, cytotoxicity induction, CellTiter-Glo, 5 h, median
[13] = Homo sapiens, SU-DHL-5, 72 h, 72 h
[14] = read-out: Cytotox SUDHL5 [M] (median), SUDHL5 cells, cytotoxicity induction, CellTiter-Glo, 5 h incubation, median
[15] = read-out: Cytotox SUDHL10 [M] (median), SUDHL10 cells, cytotoxicity induction, CellTiter-Glo, 5 h incubation, median

MCL-1, sequence (Q07820 whole entry): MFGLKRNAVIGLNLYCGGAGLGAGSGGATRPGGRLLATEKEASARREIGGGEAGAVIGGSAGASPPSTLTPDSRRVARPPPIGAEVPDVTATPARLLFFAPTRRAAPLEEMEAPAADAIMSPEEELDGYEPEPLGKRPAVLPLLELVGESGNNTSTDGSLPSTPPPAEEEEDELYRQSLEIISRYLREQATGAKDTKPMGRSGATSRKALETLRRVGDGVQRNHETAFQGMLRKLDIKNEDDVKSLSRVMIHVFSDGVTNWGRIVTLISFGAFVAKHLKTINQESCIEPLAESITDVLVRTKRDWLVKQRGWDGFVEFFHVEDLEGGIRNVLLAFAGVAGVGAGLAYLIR

SMILES	EC50 ([1]; Homo sapiens, SU-DHL-5, 3 h) [µM]	EC50 ([3]; Homo sapiens, SU-DHL10, 3 h) [µM]	IC50 ([5]; Homo sapiens, A2780, 72 h) [M]	IC50 [6] [µM]	IC50 [7, 10] [M]	IC50 [7, 13] [M]	EC50 [1] [µM]	EC50 [3] [µM]	IC50 [5] [M]	IC50 ([7]; 72 h incubation) [M]	IC50 [2, 8] [M]	IC50 [4, 9] [M]	IC50 [2, 11] [M]	IC50 [4, 12] [M]	IC50 [2, 14] [M]	IC50 [4, 15] [M]
Cn1nc(C(F)(F)F)c2c1COCCCCn1c(C(=O)O)c(CCCOc3cccc4ccccc34)c3cccc-2c31 (racemic) [Example 216, (rac)-1-methyl-7-[3-(naphthalen-1-yloxy)propyl]-3-(trifluoromethyl)-1,10,11,12,13,15-hexahydropyrazolo[4′,3′:9,10][1,6]oxazacycloundecino[8,7,6-hi]indole-8-carboxylic Acid]	10	28.7	2.02e-05	0.0058	1.27e-05	–	–	–	–	–	1.04e-05	3.11e-05	–	–	–	–
Cc1c2c(nn1CCN(C)C)COCCCCn1c(C(=O)O)c(CCCOc3cccc4ccccc34)c3cccc-2c31 (racemic) [Example 243, (rac)-2-[2-(dimethylamino)ethyl]-3-methy-7-[3-(naphthalen-1-yloxy)propyl]-2,10,11,12,13,15-hexahydropyrazolo[4′,3′:9,10][1,6]oxazacycloundecino[8,7,6-hi]indole-8-carboxylic Acid Trifluoroacetic Acid Salt]	7.09	16.5	1.43e-05	0.00778	1.11e-05	–	–	–	–	–	6.44e-06	1.46e-05	–	–	–	–
CCc1nn(C)c2c1-c1c(C)ccc3c(C(C)CCOc4cccc5ccccc45)c(C(=O)O)n(c13)CCCCOC2 (racemic) [Example 271, 3-ethyl-1,4-dimethyl-7-[4-(naphthalen-1-yloxy)butan-2-yl]-1,10,11,12,13,15-hexahydropyrazolo[4′,3′:9,10][1,6]oxazacycloundecino[8,7,6-hi]indole-8-carboxylic Acid]	> 33	> 33	1.83e-05	0.0306	1.27e-05	–	–	–	–	–	3.28e-05	> 3.3e-05	–	–	–	–
Cc1ccc2c(C(C)CCOc3cccc4ccccc34)c(C(=O)O)n3c2c1-c1c(nn(C)c1C)COCCCC3 (racemic) [Example 362, 11,12,13-trimethyl-1-(4-(naphthalen-1-yloxy)butan-2-yl)-4,5,6,7,9,11-hexahydropyrazolo[4′,3′:9,10][1,6]oxaazacycloundecino[8,7,6-hi]indole-2-carboxylic Acid (Mixture of Stereoisomers)]	26.2	> 33	1.41e-05	0.0187	–	1.27e-05	–	–	–	–	–	–	2.72e-05	> 3.3e-05	–	–
COc1c2c(nn1C)COCCCCn1c(C(=O)O)c(CCCOc3cccc4ccccc34)c3cccc-2c31 (single isomer, unassigned) [Example 209, 3-methoxy-2-methyl-7-[3-(naphthalen-1-yloxy)propyl]-2,10,11,12,13,15-hexahydropyrazolo[4′,3′:9,10][1,6]oxazacycloundecino[8,7,6-hi]indole-8-carboxylate]	–	–	–	0.025	–	–	> 33	> 33	1.58e-05	1.58e-05	–	–	–	–	> 3.3e-05	> 3.3e-05

Continued by falling IC50 [6], values first:

EC50 ([1]; Homo sapiens, SU-DHL-5, 3 h) [µM]	EC50 ([3]; Homo sapiens, SU-DHL10, 3 h) [µM]	IC50 ([5]; Homo sapiens, A2780, 72 h) [M]	IC50 [6] [µM]	IC50 [7, 10] [M]	IC50 [7, 13] [M]	EC50 [1] [µM]	EC50 [3] [µM]	IC50 [5] [M]	IC50 ([7]; 72 h incubation) [M]	SMILES	IC50 [2, 8] [M]	IC50 [4, 9] [M]	IC50 [2, 11] [M]	IC50 [4, 12] [M]	IC50 [2, 14] [M]	IC50 [4, 15] [M]
–	–	–	0.926	–	–	> 33	> 33	1.01e-05	4.61e-06	CCc1nn(C)c2c1-c1c(C)ccc3c(C(C)CCOc4cccc5cc(F)ccc45)c(C(=O)O)n(c13)CCCCOC2 (single isomer, unassigned) [Example 263, 3-ethyl-7-{4-[(6-fluoronaphthalen-1-yl)oxy]butan-2-yl}-1,4-dimethyl-1,10,11,12,13,15-hexahydropyrazolo[4′,3′:9,10][1,6]oxazacycloundecino[8,7,6-hi]indole-8-carboxylic Acid]	–	–	–	–	> 3.3e-05	2.79e-05
–	–	–	0.0388	–	–	22.6	> 33	7.54e-06	4.2e-06	CCc1nn(C)c2c1-c1c(C)ccc3c(C(C)CCOc4cccc5cc(F)ccc45)c(C(=O)O)n(c13)CCCCOC2 (single isomer, unassigned) [Example 262, 3-ethyl-7-{4-[(6-fluoronaphthalen-1-yl)oxy]butan-2-yl}-1,4-dimethyl-1,10,11,12,13,15-hexahydropyrazolo[4′,3′:9,10][1,6]oxazacycloundecino[8,7,6-hi]indole-8-carboxylic Acid]	–	–	–	–	1.67e-05	2.15e-05
> 33	> 33	1.2e-05	0.0173	–	2.06e-05	–	–	–	–	CN1CCN(Cc2c3c(nn2C)COC/C=C\Cn2c(C(=O)O)c(CCCOc4cccc5ccccc45)c4cccc-3c42)CC1 (racemic) [Example 358, (rac)-(11 Z)-2-methyl-3-[(4-methylpiperazin-1-yl)methyl]-7-[3-(naphthalen-1-yloxy)propyl]-2,10,13,15-tetrahydropyrazolo[4′,3′:9,10][1,6]oxazacycloundecino[8,7,6-hi]indole-8-carboxylic Acid]	–	–	> 3.3e-05	> 3.3e-05	–	–
23.3	> 33	> 3.3e-05	0.0107	> 3.3e-05	–	–	–	–	–	COCc1nn(C)c2c1-c1cccc3c(CCCOc4cccc5ccccc45)c(C(=O)O)n(c13)CCCCCOC2 (racemic) [Example 177, (rac)-3-(methoxymethyl)-1-methyl-7-[3-(naphthalen-1-yloxy)propyl]-1,11,12,13,14,16-hexahydro-10H-pyrazolo[3′,4′:3,4][1,7]oxazacyclododecino[5,6,7-hi]indole-8-carboxylic Acid]	2.14e-05	> 3.3e-05	–	–	–	–
